# Biological target: T1, hACMSD (ACMSD1) (Homo sapiens, UniProt Q8TDX5)
# T1 construct: made in house; host or cells: Pichia pastoris
# Experiment: Determination of ACMSD1 inhibition, spectrophotometrical in vitro assay (conversion of 3OH-anthranilic acid into ACMS)
# Format: biochemical
# Settings: HAA concentration of 10 μM; recombinant ACMSD1 from Pichia pastoris; 25° C.; absorbance at 360 nm
# Description: The activity of compounds as inhibitors of ACMSD1 is determined in a spectrophotometrical in vitro assay. The pre-assay mixture is incubated and a compound of Formula (I) or (II), or a pharmaceutically acceptable salt thereof, and ACMSD1 solution is then added. The effect of ACMS concentration on the enzyme activity is investigated by varying 3-hydroxyanthranilic acid (30H-HA) concentration in the pre-assay mixture. Kinetic parameters are calculated from the initial velocity data using a Lineweaver-Burk plot.
# The pre-assay mixture consisting of 3-hydroxyanthranilic acid (30H-HA), 3-hydroxyanthranilic acid, 3,4-diOxygenase (HAO), and a dialyzed crude extract of E. coli BL21 (DE3) cells expressing the recombinant enzyme, was incubated at 25° C. with monitoring of the increase in absorbance at 360 nm due to the formation of ACMS from 30H-HA. After the reaction was completed within ˜2 mins, an aliquot of ACMSD1 solution (prepared and purified from Pichia pastoris overexpressing the recombinant enzyme) was added, and the decrease in absorbance at 360 nm was followed at 15 second intervals. The effect of ACMS concentration on the enzyme activity was investigated by varying 30H-HA concentration from 2 to 20 μM. Kinetic parameters were calculated from the initial velocity data by using the Lineweaver-Burk plot.
# The rate of the decrease in absorbance caused by ACMSD1 was calculated by subtracting that of the control reaction mixture without ACMSD from that described above. One unit of ACMSD activity was indicated as the amount of enzyme that converts 1 mmol of ACMS per minute at 25° C.
# The enzymatic activity was determined at a HAA concentration of 10 μM in the presence of the compounds in Table 1 below. […] In Table 1, A is <0.1 μM; B is 0.1 to 1 μM; C is 1 to 10 μM; and D is >10 μM.
# T1 sequence (Q8TDX5 whole entry): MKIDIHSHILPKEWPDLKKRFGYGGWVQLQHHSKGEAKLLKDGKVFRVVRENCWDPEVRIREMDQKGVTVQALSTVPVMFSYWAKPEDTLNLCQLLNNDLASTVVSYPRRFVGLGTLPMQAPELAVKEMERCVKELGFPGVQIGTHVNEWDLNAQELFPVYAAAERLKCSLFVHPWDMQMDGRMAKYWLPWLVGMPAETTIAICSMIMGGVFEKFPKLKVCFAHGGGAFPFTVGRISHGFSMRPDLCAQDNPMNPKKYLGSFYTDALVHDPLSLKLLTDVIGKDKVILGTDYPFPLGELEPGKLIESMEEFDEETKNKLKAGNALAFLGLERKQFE
row,Compound,IC50 [nM]
1,N#Cc1c(-c2cccs2)nc(SCc2cccc(-c3nn[nH]n3)c2)[nH]c1=O [I-43],< 100
2,N#Cc1c(-c2cccs2)nc(N[C@H]2CC[C@H](C(=O)O)CC2)[nH]c1=O [I-46],> 10000
3,N#Cc1c(-c2cccs2)nc(NCc2cccc(C(=O)O)c2)[nH]c1=O [I-48],1000 to 10000
4,N#Cc1c(-c2cccs2)nc(NCc2cccc(Cc3nnn[nH]3)c2)[nH]c1=O [I-49],< 100
5,N#Cc1c(-c2cccs2)nc(NCc2cccc(CC(=O)O)c2)[nH]c1=O [I-50],1000 to 10000
6,N#Cc1c(-c2cccs2)nc(NCc2ccc(-c3nnn[nH]3)cc2)[nH]c1=O [I-51],100 to 1000

# Reference: patent US12186317B2, “Inhibitors of alpha-amino-beta-carboxymuconic acid semialdehyde decarboxylase” (TES Pharma S.r.l., priority 2018, dated 2025)
